From patent US20140275169A1, “Combination Therapies for Enhancing Protein Degradation” (The Regents of the University of Michigan, priority 2013, published 2014)

Columns and labels:
Usp14 = Usp14 (Homo sapiens, UniProt P54578); assay: Inhibition of Usp14 (statement in overview); type: biochemical
endogenous total tau = assay: Degradation of endogenous total tau in primary cortical rat neurons, SDS-PAGE immunoblot with tau-5 antibody; type: cell-based; conditions: 24 hours, individual compounds (lanes 2 and 3) and combination (lane 4)
Protocol: These independently duplicated experiments were carried out in primary cortical rat neurons for 24 hours. Tau was detected after SDS-PAGE immunoblot analysis, using the tau-5 antibody.
The combined effect of Usp14 inhibitors and Hsp70 inhibitors on tau levels is shown to be synergistic in this experiment in that this effect (lane 4) is greater than the sum of the individual effects of these compounds (lanes 2 and 3). To cite one example, in FIG. 5A the individual effects are approximately 8% and 2% for Usp14 and Hsp70 inhibitors, respectively, while the combined effect is approximately 71%, far greater than the expected additive effect of approximately 10%.
This experiment was carried out in primary cortical rat neurons for 48 hours. Tau was detected after SDS-PAGE immunoblot analysis, using the tau-5 antibody.
This experiment was carried out in primary cortical rat neurons for 24 hours. Tau was detected after SDS-PAGE immunoblot analysis, using the tau-5 antibody.

Chain of Usp14 (P54578 whole entry, species assumed): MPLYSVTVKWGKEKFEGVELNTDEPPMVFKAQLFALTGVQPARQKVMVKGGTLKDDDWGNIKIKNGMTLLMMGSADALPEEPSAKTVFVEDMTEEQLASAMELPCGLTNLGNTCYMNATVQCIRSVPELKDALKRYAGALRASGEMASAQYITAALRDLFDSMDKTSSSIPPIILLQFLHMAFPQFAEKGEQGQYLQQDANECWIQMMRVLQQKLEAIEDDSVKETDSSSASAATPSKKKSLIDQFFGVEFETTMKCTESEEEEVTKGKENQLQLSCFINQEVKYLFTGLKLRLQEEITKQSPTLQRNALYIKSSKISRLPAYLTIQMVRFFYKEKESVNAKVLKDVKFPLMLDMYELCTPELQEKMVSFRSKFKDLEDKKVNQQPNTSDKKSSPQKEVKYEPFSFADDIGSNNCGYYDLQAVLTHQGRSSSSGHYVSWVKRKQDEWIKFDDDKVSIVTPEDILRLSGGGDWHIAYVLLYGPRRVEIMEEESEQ

SMILES	Usp14 inhibition, qualitative (Usp14)	effect on tau levels (FIG. 5A) (endogenous total tau)
Cc1cc(C(=O)CN2CCCC2)c(C)n1-c1ccc(F)cc1 [IU1, 1-(1-(4-fluorophenyl)-2,5-dimethyl-1H-pyrrol-3-yl)-2-(pyrrolidin-1-yl)ethanone]	inhibitor of Usp14	
Cc1cc(C(=O)CN2CCCCC2)c(C)n1-c1ccc(Cl)cc1 [IU1-47]	more potent variant of IU1	approximately 8%
